These results are taken from PMC4608732, “Phosphorylation and Internalization of Lysophosphatidic Acid Receptors LPA1, LPA2, and LPA3” (PLoS ONE, 2015).

pEC50, pIC50: −log10 of the molar value. A value given as a limit tells only on which side of the number the result lay.

One assay has as its system ERK 1/2. Put plainly: ERK 1/2 phosphorylation (Western blotting) in C9 cells overexpressing LPA1-3. It counts as cell-based, rat. On the procedure:
Cells were cultured to near confluence in 6 well plates and stimulated with the agents tested for the times indicated. Total cellular extracts were obtained by lysing the cells in Laemmli’s sample buffer containing 5% β-mercaptoethanol. The cell extracts were subject to 10% SDS-PAGE and transferred to nitrocellulose membranes. Membranes from samples obtained in parallel were incubated overnight at 4°C, with anti-pERK 1/2 (1:2000) or anti ERK 1/2 (1:2000). The membranes were washed and incubated for 1 h at room temperature with a horseradish peroxidase-conjugated secondary antibody (1:10,000) for enhanced chemiluminescence detection.
On the technique in general: Immunoblotting shows a protein as a band on a membrane.

Assay [1] addresses T1, LPA2 receptor (Homo sapiens, UniProt Q9HBW0). Put plainly: LPA2 receptor phosphorylation ([32P]Pi labeling, immunoprecipitation). The format is cell-based. The procedure:
(§1) The procedure was very similar to that previously described to study LPA1 receptor phosphorylation. In brief, cells were incubated in phosphate-free Dulbecco’s modified Eagle’s medium containing 100 μCi/ml [^32P]Pi for 3 h at 37°C. LPA1- and LPA2-expressing cells were cultured in 6 well plates, whereas those expressing LPA3 receptors were cultured in 10 cm dishes. Labeled cells were stimulated with the agents tested and then washed twice with ice-cold phosphate buffered saline and solubilized in buffer containing 10 mM Tris, 150 mM NaCl, 1% sodium cholate, 1% Nonident P40, protease and phosphatase inhibitors, pH 7.4 [11, 12, 14]. The lysates were incubated overnight with protein A-agarose and anti-GFP serum with constant agitation at 4°C. Samples were washed and the pellets containing the immunocomplexes were solubilized in Laemmli’s sample buffer containing 5% β-mercaptoethanol. Proteins were separated using 10% SDS-PAGE and electrotransferred onto polyvinyliden fluoride membranes. Receptor phosphorylation was analyzed with a Molecular Dynamics Typhoon PhosphorImager and the ImageJ software (http://rsb.info.nih.gov/ij/).

Assay [2] has as its target T2, LPA1 receptor (Mus musculus, UniProt P61793).
T2 construct: expressed in transfected cells
Put plainly: LPA1 receptor phosphorylation ([32P]Pi labeling, immunoprecipitation). It counts as cell-based. On the procedure: as §1

Assay [3] deals with T3, LPA3 receptor (Homo sapiens, UniProt Q9UBY5).
T3 sequence (Q9UBY5 1-353): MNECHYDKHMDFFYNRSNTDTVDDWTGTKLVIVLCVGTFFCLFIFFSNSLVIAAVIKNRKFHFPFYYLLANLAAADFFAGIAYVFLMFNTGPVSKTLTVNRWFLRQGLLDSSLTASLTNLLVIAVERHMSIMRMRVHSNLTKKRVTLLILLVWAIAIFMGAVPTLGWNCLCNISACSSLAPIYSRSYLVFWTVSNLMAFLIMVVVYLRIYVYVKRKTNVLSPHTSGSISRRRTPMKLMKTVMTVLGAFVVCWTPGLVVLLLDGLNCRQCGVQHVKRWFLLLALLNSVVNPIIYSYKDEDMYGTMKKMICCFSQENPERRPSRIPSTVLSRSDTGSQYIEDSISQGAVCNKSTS
Briefly: LPA3 receptor phosphorylation ([32P]Pi labeling, immunoprecipitation). The format is cell-based.

Assay [4] concerns the target T1, LPA2 receptor. Briefly: Heterologous (PMA) / homologous (LPA) desensitization of LPA-induced calcium response, LPA2 cells. The format is cell-based. On the procedure: (§2) This procedure has been described previously. Briefly, cells were loaded with 2.5 μM Fura-2 AM in Krebs–Ringer–Hepes containing 0.05% bovine serum albumin (pH 7.4) for 1 h at 37°C and then washed to eliminate unincorporated indicator. Determinations were carried in an AMINCO-Bowman Series 2 luminescence spectrometer, employing 340 and 380 nm excitation wavelengths and an emission wavelength of 510 nm; chopper interval was 0.5 sec. The intracellular calcium concentration was calculated as described by Grynkiewicz et al.. In the experiments where prolonged incubation was required (resensitization studies), cells were stimulated, washed, and the incubation was continued in the presence of Fura-2 AM, to avoid dye depletion.
(§3) Agonists-mediated decreases occurred in a concentration-dependent fashion, with a maximum at the concentration of ~ 100 nM. […] It is worth noticing that the shift in the curves was more pronounced in LPA1- or LPA3-expressing cells, than in those that expressed the LPA2 subtype.
(§4) Plotted are the increases in calcium as the percentage of that obtained in cells preincubated without any agent as mean ± S. E. M. of 6 experiments using different cell preparations.

The target of assay [5] is T2, LPA1 receptor. Put plainly: Heterologous (PMA) / homologous (LPA) desensitization of LPA-induced calcium response, LPA1 cells. The format is cell-based. On the procedure:
as §2, §3, §4

Assay [6] addresses T3, LPA3 receptor. Put plainly: Heterologous (PMA) / homologous (LPA) desensitization of LPA-induced calcium response, LPA3 cells. It counts as cell-based. The procedure:
as §2, §3, §4

For assay [7], the target named is T3, LPA3 receptor. Briefly: LPA3 receptor internalization, confocal imaging. It counts as cell-based. To be noted: 1 μM agent, 30 or 60 min, LPA3 cells. The procedure:
(§5) Cells were seeded at approximately 30% confluence onto glass-bottomed Petri dishes and cultured for 3 h at 37°C in media containing 1% serum. After treatment, cells were washed three times with phosphate buffered saline and fixed with 4% paraformaldehyde in 0.1 M phosphate buffer for 20 min at room temperature; samples were then washed three additional times with phosphate buffered saline. The fluorescent images were acquired with an Olympus Fluoview FV10 confocal microscope with a water-immersion objective (60X). To determine receptor internalization, the plasma membrane was delineated utilizing the differential interference contrast imaging, and fluorescence in this region was quantified employing the ImageJ software. At least 5 or 6 images of different cultures were taken for each condition. Data were normalized as follows: for each experiment, fluorescence (arbitrary units) at the plasma membrane of baseline samples were pooled and the average was considered as 100%.

Assay [8] has as its target T1, LPA2 receptor. Briefly: LPA2 receptor internalization, confocal imaging. It counts as cell-based. As to conditions: 1 μM agent, 30 or 60 min, LPA2 cells. The procedure: as §5
In assay [9] the target is T2, LPA1 receptor. Briefly: LPA1 receptor internalization, confocal imaging. It counts as cell-based. To be noted: 1 μM agent, 30 or 60 min, LPA1 cells. The procedure:
as §5

The mark [10] stands for this setting: read-out: IC50, inhibition of LPA-induced calcium response (heterologous desensitization).

T2 sequence (P61793 whole entry): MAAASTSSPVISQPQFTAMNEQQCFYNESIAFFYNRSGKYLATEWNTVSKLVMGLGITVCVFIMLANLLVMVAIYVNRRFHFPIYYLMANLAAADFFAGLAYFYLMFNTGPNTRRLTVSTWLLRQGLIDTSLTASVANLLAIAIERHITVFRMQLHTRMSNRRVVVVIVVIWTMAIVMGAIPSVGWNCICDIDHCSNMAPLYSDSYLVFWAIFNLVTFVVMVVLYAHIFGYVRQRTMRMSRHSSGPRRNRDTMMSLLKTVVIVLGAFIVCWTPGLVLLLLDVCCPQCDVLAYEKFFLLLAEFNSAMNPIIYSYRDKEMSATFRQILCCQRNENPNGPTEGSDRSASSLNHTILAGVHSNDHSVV
T1 sequence (Q9HBW0 whole entry): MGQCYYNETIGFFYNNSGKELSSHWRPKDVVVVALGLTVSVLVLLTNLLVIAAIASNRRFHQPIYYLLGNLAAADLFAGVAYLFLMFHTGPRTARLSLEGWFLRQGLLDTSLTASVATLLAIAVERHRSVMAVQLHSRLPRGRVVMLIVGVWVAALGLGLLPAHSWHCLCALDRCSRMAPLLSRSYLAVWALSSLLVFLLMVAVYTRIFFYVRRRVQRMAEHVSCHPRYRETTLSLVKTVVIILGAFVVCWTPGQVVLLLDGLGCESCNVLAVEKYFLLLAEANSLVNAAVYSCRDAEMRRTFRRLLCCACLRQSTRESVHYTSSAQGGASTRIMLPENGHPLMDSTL

For `COc1cc2ncnc(Nc3cccc(Cl)c3)c2cc1OC` [AG1478], the “effect on baseline phospho-ERK signal” value with ERK 1/2 (10 μM AG1478 30 min, cells expressing LPA1 receptors) is recorded as “did not alter it”; with ERK 1/2 (10 μM AG1478 30 min, cells overexpressing LPA2, statistically insignificant), “decrease it”; with ERK 1/2 (10 μM AG1478 30 min, cells overexpressing LPA3, statistically significant), “decrease it”. Besides, the “effect on LPA- and EGF-induced ERK phosphorylation” value in the assay on ERK 1/2 (10 μM AG1478 30 min, then 1 μM LPA or 100 ng/ml EGF 5 min) is listed as “clearly diminished the effect of both growth factors”. Besides, the “effect on LPA-induced receptor phosphorylation” value at LPA2 receptor [1] (10 μM AG1478 30 min, then 1 μM LPA 15 min, LPA2 cells) is reported as “markedly reduced (but did not abolish)”; at LPA1 receptor [2] (10 μM AG1478 30 min, then 1 μM LPA 15 min, LPA1 cells), “markedly reduced (but did not abolish)”; at LPA3 receptor [3] (10 μM AG1478 30 min, then 1 μM LPA 15 min, LPA3 cells) it was “markedly reduced (but did not abolish)”.

As for `CN(C)CCCn1cc(C2=C(c3c[nH]c4ccccc34)C(=O)NC2=O)c2ccccc21` [bisindolylmaleimide I, Bisindolylmaleimide I], the “effect on LPA-induced desensitization” value on LPA2 receptor [4] (15 min preincubation with inhibitor, 1 μM LPA, LPA2 cells) is on record as “unable to alter LPA-induced desensitization”; on LPA1 receptor [5] (15 min preincubation with inhibitor, 1 μM LPA, LPA1 cells), “unable to alter LPA-induced desensitization”; at LPA3 receptor [6] (15 min preincubation with inhibitor, 1 μM LPA, LPA3 cells) it was “unable to alter LPA-induced desensitization”. Also, the “effect on PMA-induced desensitization” value at LPA2 receptor [4] (15 min preincubation with inhibitor, 1 μM PMA, LPA2 cells) was “markedly diminished PMA-induced desensitization”; on LPA1 receptor [5] (15 min preincubation with inhibitor, 1 μM PMA, LPA1 cells), “markedly diminished PMA-induced desensitization”; on LPA3 receptor [6] (15 min preincubation with inhibitor, 1 μM PMA, LPA3 cells), “markedly diminished PMA-induced desensitization”.

In the case of “EGF: epidermal growth factor, obtained from Preprotech (NSDSECPLSHDGYCLHDGVCMYIEALDKYACNCVVGYIGERCQYRDLKWWELR; UniProt P01133 971-1023, looked up)”, the “increase in ERK phosphorylation” value in the assay with ERK 1/2 (100 ng/ml EGF, 5 min, cells overexpressing LPA1-3) is ~ 4 fold.

Take `CCCCCCCCCCCCCC(=O)O[C@@H]1[C@@H](C)[C@@]2(O)[C@@H](C=C(CO)C[C@]3(O)C(=O)C(C)=C[C@@H]23)[C@@H]2C(C)(C)[C@]12OC(C)=O` [PMA, phorbol myristate acetate]: the “time to maximum receptor phosphorylation” value at LPA2 receptor [1] (1 μM agent, LPA2 cells) is listed as at most 5 min; on LPA1 receptor [2] (1 μM agent, LPA1 cells), at most 5 min; on LPA3 receptor [3] (1 μM agent, LPA3 cells) it was at most 5 min. Moreover, the “concentration-response curve, receptor phosphorylation” value on LPA2 receptor [1] (15 min incubation, LPA2-overexpressing cells, shift to higher concentrations) is reported as “no clear saturation was obtained”. At LPA2 receptor [4] (LPA2 cells, highest PMA concentration tested), the “remaining calcium response to LPA” value is on record as 30–40%. Moreover, the pIC50 on LPA2 receptor [4] (setting [10]) was 8.00 to 8.52; on LPA1 receptor [5] (setting [10]), 8.52 to 9.00; at LPA3 receptor [6] (setting [10]), 8.00 to 8.52. For the same molecule, the “receptor internalization (fluorescence at the plasma membrane)” value at LPA3 receptor [7] and at LPA1 receptor [9] was “markedly decreasing fluorescence at the plasma membrane level” in each case. Moreover, the “receptor internalization (decrease in fluorescence at the plasma membrane, compared with other subtypes)” value at LPA2 receptor [8] is given as “much less intense”. In addition, the negative logarithm of the EC50 (pEC50) on LPA1 receptor [2] and on LPA3 receptor [3] was 8.00 to 8.52 throughout. Besides, the “concentration at which receptor phosphorylation saturates” value at LPA1 receptor [2] (15 min incubation, LPA1-overexpressing cells) was 100 nM; at LPA3 receptor [3] (15 min incubation, LPA3-overexpressing cells) it was 100 nM.

In general, pIC50 refers to the negative decadic logarithm of the IC50, by convention in mol/L. As usually defined, the pEC50 is −log10 of the EC50, conventionally taken in molar units. The low end stands for a high EC50, the high end for a low EC50.
